Assay results reported in US7960606B2, “Mouse model of chronic heart failure and coronary atherosclerosis regression” (The J. David Gladstone Institutes, priority 2006, dated 2011).

Experiments:
SR-BI knockout females = details: administered during the breeding protocol; Miettinen et al. 2001; cited from earlier work
[1] = test system: Apoe^h/hSRB1^−/−Mx1-Cre mice; experiment: Survival of diet-induced heart attacks in Apoe^h/hSRB1^−/−Mx1-Cre mice after pI-pC injection and switch to low fat diet; assay type: in vivo
Excerpt: The animal model was created by breeding Apoe^h/hSRB1^−/− mice to mice that carry the inducible Mx1-Cre transgene, resulting in Apoe^h/hSRB1^−/−Mx1-Cre mice that are sensitive to diet-induced coronary atherosclerosis and develop fatal myocardial infarctions within 35 days of dietary challenge. However, this new strain of mice can survive its heart attacks if switched to a normal low fat diet and given a single intrapentoneal injection of polyinosinic polycytidylic ribonucleic acid (pI-pC). […] Surviving Apoe^h/hSRB1^−/−MX1-Cre mice can then live for many months. Upon histological analysis of their heart, there is evidence of myocardial infarction and ventricular enlargement. Consequently, the surviving Apoe^h/hSRB1^−/−Mx1-Cre mice are a unique murine model of chronic heart failure that simulates chronic heart failure in humans who survive heart attacks caused by coronary atherosclerosis.
10 Apoe^h/hSRB1^−/−Mx1-Cre mice were fed a high cholesterol diet for 30 days. On day 31, they were injected with pI-pC, and then switched to a low fat diet. Of the 10 mice, 6 survived for two months. At that time point, their hearts were harvested and heart function was assessed in 4 of the 6 mice by Langendorf hemodynamic measurements.

| Compound | fertility in the SR-BI knockout females (SR-BI knockout females) | mice surviving for two months (of 10) ([1]; high cholesterol diet for 30 days, pI-pC injected on day 31, then low fat diet, 10 mice) | blood cholesterol levels ([1]; single intraperitoneal injection, activates Mx1-Cre gene, restores normal Arg-61 apoE levels in blood) |
| --- | --- | --- | --- |
| CC(C)(Sc1cc(C(C)(C)C)c(O)c(C(C)(C)C)c1)Sc1cc(C(C)(C)C)c(O)c(C(C)(C)C)c1 [probucol] | restore fertility | – | – |
| polyinosinic polycytidylic ribonucleic acid [pI-pC] | – | 6 | rapidly and permanently lowers blood cholesterol levels in a few days |
